“And” between values parts separate entries of the source, which are not always exact repeats. Equal entries are not always repeated. ± gives the uncertainty stated by the source.
Assay: xn = mol fraction of the nth substance listed

CN(C)C=O + CO
viscosity (293.15 K, 101 kPa, x2 = 0.0998): 0.835 ± 0.012 mPa·s
viscosity (293.15 K, 101 kPa, x2 = 0.2): 0.809 ± 0.011 mPa·s
viscosity (293.15 K, 101 kPa, x2 = 0.3): 0.782 ± 0.011 mPa·s
viscosity (293.15 K, 101 kPa, x2 = 0.4002): 0.754 ± 0.011 mPa·s
viscosity (293.15 K, 101 kPa, x2 = 0.5): 0.723 ± 0.011 mPa·s
viscosity (293.15 K, 101 kPa, x2 = 0.6): 0.693 ± 0.01 mPa·s
viscosity (293.15 K, 101 kPa, x2 = 0.6997): 0.665 ± 0.01 mPa·s
viscosity (293.15 K, 101 kPa, x2 = 0.8): 0.64 ± 0.01 mPa·s
viscosity (293.15 K, 101 kPa, x2 = 0.8998): 0.613 ± 0.01 mPa·s
viscosity (298 K, 101.3 kPa, x2 = 0.1198): 0.766 ± 0.011 mPa·s
viscosity (298 K, 101.3 kPa, x2 = 0.2267): 0.739 ± 0.01 mPa·s
viscosity (298 K, 101.3 kPa, x2 = 0.4094): 0.693 ± 0.01 mPa·s
viscosity (298 K, 101.3 kPa, x2 = 0.5596): 0.655 ± 0.009 mPa·s
viscosity (298 K, 101.3 kPa, x2 = 0.6854): 0.623 ± 0.009 mPa·s
viscosity (298 K, 101.3 kPa, x2 = 0.7922): 0.596 ± 0.009 mPa·s
viscosity (298 K, 101.3 kPa, x2 = 0.884): 0.573 ± 0.008 mPa·s
viscosity (298 K, 101.3 kPa, x2 = 0.9639): 0.553 ± 0.008 mPa·s
viscosity (298.15 K, 101 kPa, x1 = 0.3048): 0.568 ± 0.16 mPa·s
viscosity (298.15 K, 101 kPa, x2 = 0.0998): 0.782 ± 0.011 mPa·s
viscosity (298.15 K, 101 kPa, x2 = 0.2): 0.758 ± 0.011 mPa·s
viscosity (298.15 K, 101 kPa, x2 = 0.3): 0.734 ± 0.011 mPa·s
viscosity (298.15 K, 101 kPa, x2 = 0.4002): 0.705 ± 0.011 mPa·s
viscosity (298.15 K, 101 kPa, x2 = 0.5): 0.678 ± 0.01 mPa·s
viscosity (298.15 K, 101 kPa, x2 = 0.6): 0.649 ± 0.01 mPa·s
viscosity (298.15 K, 101 kPa, x2 = 0.6997): 0.622 ± 0.01 mPa·s
viscosity (298.15 K, 101 kPa, x2 = 0.8): 0.596 ± 0.01 mPa·s
viscosity (298.15 K, 101 kPa, x2 = 0.8998): 0.572 ± 0.01 mPa·s
viscosity (303.15 K, 101 kPa, x1 = 0.0995): 0.5458 ± 0.0048 mPa·s
viscosity (303.15 K, 101 kPa, x1 = 0.2004): 0.5714 ± 0.0051 mPa·s
viscosity (303.15 K, 101 kPa, x1 = 0.3004): 0.5986 ± 0.0053 mPa·s
viscosity (303.15 K, 101 kPa, x1 = 0.3993): 0.6269 ± 0.0056 mPa·s
viscosity (303.15 K, 101 kPa, x1 = 0.5008): 0.6547 ± 0.0059 mPa·s
viscosity (303.15 K, 101 kPa, x1 = 0.5728): 0.6716 ± 0.006 mPa·s
viscosity (303.15 K, 101 kPa, x1 = 0.6998): 0.7023 ± 0.0064 mPa·s
viscosity (303.15 K, 101 kPa, x1 = 0.8014): 0.7263 ± 0.0068 mPa·s
viscosity (303.15 K, 101 kPa, x1 = 0.8996): 0.7515 ± 0.0071 mPa·s
viscosity (303.15 K, 101 kPa, x2 = 0.0998): 0.736 ± 0.011 mPa·s
viscosity (303.15 K, 101 kPa, x2 = 0.2): 0.713 ± 0.011 mPa·s
viscosity (303.15 K, 101 kPa, x2 = 0.3): 0.688 ± 0.01 mPa·s
viscosity (303.15 K, 101 kPa, x2 = 0.4002): 0.663 ± 0.01 mPa·s
viscosity (303.15 K, 101 kPa, x2 = 0.5): 0.674 ± 0.017 mPa·s and 0.636 ± 0.01 mPa·s
viscosity (303.15 K, 101 kPa, x2 = 0.6): 0.608 ± 0.01 mPa·s
viscosity (303.15 K, 101 kPa, x2 = 0.6997): 0.584 ± 0.01 mPa·s
viscosity (303.15 K, 101 kPa, x2 = 0.8): 0.559 ± 0.009 mPa·s
viscosity (303.15 K, 101 kPa, x2 = 0.8998): 0.534 ± 0.009 mPa·s
viscosity (308.15 K, 101 kPa, x1 = 0.0995): 0.5094 ± 0.0046 mPa·s
viscosity (308.15 K, 101 kPa, x1 = 0.2004): 0.5345 ± 0.0048 mPa·s
viscosity (308.15 K, 101 kPa, x1 = 0.3004): 0.5606 ± 0.005 mPa·s
viscosity (308.15 K, 101 kPa, x1 = 0.3993): 0.5882 ± 0.0053 mPa·s
viscosity (308.15 K, 101 kPa, x1 = 0.5008): 0.6152 ± 0.0056 mPa·s
viscosity (308.15 K, 101 kPa, x1 = 0.5728): 0.6314 ± 0.0057 mPa·s
viscosity (308.15 K, 101 kPa, x1 = 0.6998): 0.6621 ± 0.0061 mPa·s
viscosity (308.15 K, 101 kPa, x1 = 0.8014): 0.6853 ± 0.0064 mPa·s
viscosity (308.15 K, 101 kPa, x1 = 0.8996): 0.7087 ± 0.0068 mPa·s
viscosity (313.15 K, 101 kPa, x1 = 0.0995): 0.4776 ± 0.0044 mPa·s
viscosity (313.15 K, 101 kPa, x1 = 0.2004): 0.5008 ± 0.0046 mPa·s
viscosity (313.15 K, 101 kPa, x1 = 0.3004): 0.5259 ± 0.0048 mPa·s
viscosity (313.15 K, 101 kPa, x1 = 0.3993): 0.5524 ± 0.005 mPa·s
viscosity (313.15 K, 101 kPa, x1 = 0.5008): 0.5781 ± 0.0053 mPa·s
viscosity (313.15 K, 101 kPa, x1 = 0.5728): 0.5933 ± 0.0055 mPa·s
viscosity (313.15 K, 101 kPa, x1 = 0.6998): 0.6213 ± 0.0058 mPa·s
viscosity (313.15 K, 101 kPa, x1 = 0.8014): 0.644 ± 0.0061 mPa·s
viscosity (313.15 K, 101 kPa, x1 = 0.8996): 0.667 ± 0.0064 mPa·s
viscosity (313.15 K, 101 kPa, x2 = 0.0998): 0.655 ± 0.01 mPa·s
viscosity (313.15 K, 101 kPa, x2 = 0.2): 0.635 ± 0.01 mPa·s
viscosity (313.15 K, 101 kPa, x2 = 0.3): 0.612 ± 0.01 mPa·s
viscosity (313.15 K, 101 kPa, x2 = 0.4002): 0.589 ± 0.01 mPa·s
viscosity (313.15 K, 101 kPa, x2 = 0.5): 0.58 ± 0.015 mPa·s and 0.565 ± 0.009 mPa·s
viscosity (313.15 K, 101 kPa, x2 = 0.6): 0.54 ± 0.009 mPa·s
viscosity (313.15 K, 101 kPa, x2 = 0.6997): 0.517 ± 0.009 mPa·s
viscosity (313.15 K, 101 kPa, x2 = 0.8): 0.493 ± 0.009 mPa·s
viscosity (313.15 K, 101 kPa, x2 = 0.8998): 0.47 ± 0.009 mPa·s
viscosity (318.15 K, 101 kPa, x1 = 0.0995): 0.4467 ± 0.0041 mPa·s
viscosity (318.15 K, 101 kPa, x1 = 0.2004): 0.4692 ± 0.0043 mPa·s
viscosity (318.15 K, 101 kPa, x1 = 0.3004): 0.4936 ± 0.0045 mPa·s
viscosity (318.15 K, 101 kPa, x1 = 0.3993): 0.5191 ± 0.0048 mPa·s
viscosity (318.15 K, 101 kPa, x1 = 0.5008): 0.5439 ± 0.005 mPa·s
viscosity (318.15 K, 101 kPa, x1 = 0.5728): 0.5587 ± 0.0052 mPa·s
viscosity (318.15 K, 101 kPa, x1 = 0.6998): 0.5861 ± 0.0055 mPa·s
viscosity (318.15 K, 101 kPa, x1 = 0.8014): 0.6075 ± 0.0058 mPa·s
viscosity (318.15 K, 101 kPa, x1 = 0.8996): 0.6304 ± 0.0061 mPa·s
viscosity (323.15 K, 101 kPa, x1 = 0.0995): 0.4174 ± 0.0039 mPa·s
viscosity (323.15 K, 101 kPa, x1 = 0.2004): 0.4387 ± 0.0041 mPa·s
viscosity (323.15 K, 101 kPa, x1 = 0.3004): 0.4617 ± 0.0043 mPa·s
viscosity (323.15 K, 101 kPa, x1 = 0.3993): 0.4864 ± 0.0045 mPa·s
viscosity (323.15 K, 101 kPa, x1 = 0.5008): 0.51 ± 0.0048 mPa·s
viscosity (323.15 K, 101 kPa, x1 = 0.5728): 0.5243 ± 0.0049 mPa·s
viscosity (323.15 K, 101 kPa, x1 = 0.6998): 0.5501 ± 0.0052 mPa·s
viscosity (323.15 K, 101 kPa, x1 = 0.8014): 0.5705 ± 0.0055 mPa·s
viscosity (323.15 K, 101 kPa, x1 = 0.8996): 0.5923 ± 0.0058 mPa·s
viscosity (323.15 K, 101 kPa, x2 = 0.0998): 0.588 ± 0.01 mPa·s
viscosity (323.15 K, 101 kPa, x2 = 0.2): 0.569 ± 0.009 mPa·s
viscosity (323.15 K, 101 kPa, x2 = 0.3): 0.549 ± 0.009 mPa·s
viscosity (323.15 K, 101 kPa, x2 = 0.4002): 0.528 ± 0.009 mPa·s
viscosity (323.15 K, 101 kPa, x2 = 0.5): 0.503 ± 0.014 mPa·s and 0.506 ± 0.009 mPa·s
viscosity (323.15 K, 101 kPa, x2 = 0.6): 0.483 ± 0.009 mPa·s
viscosity (323.15 K, 101 kPa, x2 = 0.6997): 0.46 ± 0.009 mPa·s
viscosity (323.15 K, 101 kPa, x2 = 0.8): 0.438 ± 0.008 mPa·s
viscosity (323.15 K, 101 kPa, x2 = 0.8998): 0.415 ± 0.008 mPa·s

From the CheMixHub viscosity set
